Laboratory results: US11987559B1, “1-(4-bromobenzylideneamino)-5-phenylimidazolidine-2,4-dione as an antimicrobial compound” (KING FAISAL UNIVERSITY, priority 2023, dated 2024)

Experiments:
Type in all cases: cell-based
[1] = system: Aspergillus flavus; experiment: agar plate disc-diffusion, antifungal inhibition zone; conditions: Sabouraud's dextrose agar, 72 hours
Method: (§1) The agar plate disc-diffusion method was applied. […] The discs were then placed onto the surface of agar plates (nutrient agar for bacteria and Sabouraud's dextrose agar for fungi) seeded with the test organism. Each plate contained 15 mL of the agar medium, previously seeded with 0.2 mL of the broth culture of each organism pregrown for 18 hours. The plates were incubated at 37° C. for 48 hours, and 72 hours for fungi. The inhibition zones were measured in millimeters (mm). Discs impregnated with DMSO were used as a control, and its inhibition zone was subtracted from the tested compound's actual inhibition zone.

[2] = system: Chrysosporium keratinophilum; experiment: as above; conditions: Sabouraud's dextrose agar, 72 hours
Method: as §1

[3] = system: Staphylococcus aureus; experiment: agar plate disc-diffusion, antibacterial inhibition zone; conditions: nutrient agar, 37° C., 48 hours
Method: as §1

[4] = system: Escherichia coli; experiment: as above; conditions: nutrient agar, 37° C., 48 hours
Method: as §1

[5] = system: Bacillus cereus; experiment: as above; conditions: nutrient agar, 37° C., 48 hours
Method: as §1

[6] = system: Pseudomonas aeruginosa; experiment: as above; conditions: nutrient agar, 37° C., 48 hours
Method: as §1

[7] = system: different microbes; experiment: antimicrobial testing, overall statement; conditions: result in words; bacteria and fungi of tables 1, 2
Method: The agar plate disc-diffusion method was applied. Sterilized filter papers (6 mm in diameter) were wetted with 10 μL of a solution of 1-(4-bromobenzylideneamino)-5-phenylimidazolidine-2,4-dione (4) to be tested, containing 10 mg/mL in DMSO, and the discs were allowed to air dry. The discs were then placed onto the surface of agar plates (nutrient agar for bacteria and Sabouraud's dextrose agar for fungi) seeded with the test organism. Each plate contained 15 mL of the agar medium, previously seeded with 0.2 mL of the broth culture of each organism pregrown for 18 hours. The plates were incubated at 37° C. for 48 hours, and 72 hours for fungi. The inhibition zones were measured in millimeters (mm). Discs impregnated with DMSO were used as a control, and its inhibition zone was subtracted from the tested compound's actual inhibition zone.

[8] = A = concentration of comp. = 10,000 μL
[9] = B = concentration of comp. = 30.000 μL
[10] = C = concentration of comp. = 50,000 μL

Compound | inhibition zone [1, 8] | inhibition zone [1, 9] | inhibition zone [1, 10] | inhibition zone [2, 8] | inhibition zone [2, 9] | inhibition zone [2, 10] | inhibition zone [3, 8] | inhibition zone [3, 9] | inhibition zone [3, 10] | inhibition zone [4, 8] | inhibition zone [4, 9] | inhibition zone [4, 10] | inhibition zone [5, 8] | inhibition zone [5, 9] | inhibition zone [5, 10] | inhibition zone [6, 8] | inhibition zone [6, 9] | inhibition zone [6, 10] | antimicrobials activities against different microbes [7]
O=C(O)c1cn(C2CC2)c2cc(N3CCNCC3)c(F)cc2c1=O [Cip., reference compound] | 29 mm | 30 mm | 42 mm | 29 mm | 30 mm | 53 mm | 43 mm | 44 mm | 53 mm | 30 mm | 39 mm | 60 mm | 29 mm | 30 mm | 42 mm | 29 mm | 30 mm | 53 mm | –
O=C1NC(=O)N(/N=C/c2ccc(Br)cc2)C1c1ccccc1 (stereo not shown) [Compound 4, 1-(4-bromobenzylideneamino)-5-phenylimidazolidine-2,4-dione] | 19 mm | 24 mm | 35 mm | 26 mm | 29 mm | 45 mm | 15 mm | 23 mm | 26 mm | 24 mm | 30 mm | 48 mm | 27 mm | 29 mm | 28 mm | 23 mm | 27 mm | 34 mm | excellent
